Measurements: patent publication US20090093454A1, “Chemical Compounds” (priority 2005, published 2009)

system: HIV-1; assay: HIV infectivity assay (Table 2, strain not given); format: cell-based; details: Human immunodeficiency virus 1, read-out: Activity Level
Method: (§1) Compounds were profiled against two HIV-1 viruses, the M-tropic (CCR5 utilizing) Ba-L strain and the T-tropic (CXCR4 utilizing) IIIB strain. Both viruses were propagated in human peripheral blood lymphocytes. Compounds were tested for there ability to block infection of the HOS cell line (expressing hCXCR4/hCCR5/hCD4/pHIV-LTR-luciferase) by either HIV-1 Ba-L or HIV-1, IIIB. Compound cytotoxicity was also examined in the absence of virus addition.
(§2) HOS cells (expressing hCXCR4/hCCR5/hCD4/pHIV-LTR-luciferase) were harvested and diluted in Dulbeccos modified Eagles media supplemented with 2% FCS and non-essential amino acid to a concentration of 60,000 cells/ml. The cells were plated into 96-well plates (100 ul per well) and the plates were placed in a tissue culture incubator (37° C.; 5% CO2/95% air) for a period of 24 h.
Subsequently, 50 ul of the desired drug solution (4 times the final concentration) was added to each well and the plates were returned to the tissue culture incubator (37° C.; 5% CO2/95% air) for 1 h. Following this incubation 50 ul of diluted virus was added to each well (approximately 2 million RLU per well of virus). The plates were returned to the tissue culture incubator (37° C.; 5% CO2/95% air) and were incubated for a further 96 h.
Following this incubation the endpoint for the virally infected cultures was quantified following addition of Steady-Glo Luciferase assay system reagent (Promega, Madison, Wis.). Cell viability or non-infected cultures was measured using a CellTiter-Glo luminescent cell viability assay system (Promega, Madison, Wis.). All luminescent readouts are performed on a Topcount luminescence detector (Packard, Meridien, Conn.).
as §1, with “Ba-L was” for “Both viruses were”, “either peripheral blood lymphocytes or SupT1/CCR5+/CXCR4+ cells. IIIB was propagated in” for “human”, “their” for “there”
as §2, with “FCS” for “FCS and non-essential amino acid”, “120,000” for “60,000”, “(50 μl” for “(100 ul”, “(370°” for “(37°”
Subsequently, 50 μl of the desired drug solution (2 times the final concentration) was added to each well and the plates were returned to the tissue culture incubator (370° C.; 5% CO2/95% air) for 1 h. Following this incubation, 60 μl of diluted virus (4 times the final concentration) was added to 60 μl of 2× the final desired concentration of the compound and 100 μl of this compound/virus mix was added to each well (approximately 2 million RLU per well of virus). The plates were returned to the tissue culture incubator (370° C.; 5% CO2/95% air) and were incubated for a further 96 h.

**Q.** With `N[C@H]1CCN(c2cccc3nc(CN4CCC[C@H]5CCc6cccnc6[C@H]54)cn23)C1` [Example 107, (3S)-1-{2-[(4aR,10bS)-3,4,4a,5,6,10b-hexahydro-1,10-phenanthrolin-1(2H)-ylmethyl]imidazo[1,2-a]pyridin-5-yl}-3-pyrrolidinamine] as the molecule, how does the IC50 read?
**A.** < 100 nM

**Q.** Which IC50 does the source give for `NC1CCN(c2cccc3nc(CN4CCC[C@H]5CCc6cccnc6[C@H]54)cn23)CC1` [Example 89, 1-{2-[(4aR,10bS)-3,4,4a,5,6,10b-hexahydro-1,10-phenanthrolin-1(2H)-ylmethyl]imidazo[1,2-a]pyridin-5-yl}-4-piperidinamine] here?
**A.** < 100 nM

**Q.** How did the IC50 turn out when `c1cnc2c(c1)CC[C@@H]1CCCN(Cc3cn4c(N5CCOCC5)cccc4n3)[C@H]21` (racemic) [Example 52, (cis) 1-{[5-(4-morpholinyl)imidazo[1,2-a]pyridin-2-yl]methyl}-1,2,3,4,4a,5,6,10b-octahydro-1,10-phenanthroline] was run?
**A.** 500 to 10000 nM

**Q.** `NCCCCn1c(CN2CCC[C@@H]3CCc4cccnc4[C@H]32)nc2ccccc21` (relative stereo) [Example 37, (trans) 4-[2-(3,4,4a,5,6,10b-hexahydro-1,10-phenanthrolin-1(2H)-ylmethyl)-1H-benzimidazol-1-yl]-1-butanamine] was tested. Which IC50 did it give?
**A.** < 100 nM

**Q.** How did the IC50 turn out when `CN1CCN(c2cccc3nc(CN4CCC[C@H]5CCc6cccnc6[C@H]54)c(CN4CCCC4)n23)CC1` [Example 58, (4aR,10bS)-1-{[5-(4-methyl-1-piperazinyl)-3-(1-pyrrolidinylmethyl)imidazo[1,2-a]pyridin-2-yl]methyl}-1,2,3,4,4a,5,6,10b-octahydro-1,10-phenanthroline] was run?
**A.** < 100 nM

**Q.** For `CN1CCC(N(C)c2cccc3nc(CN4CCC[C@H]5CCc6cccnc6[C@H]54)cn23)C1` (stereo partly drawn) [Example 75, 2-[(4aR,10bS)-3,4,4a,5,6,10b-hexahydro-1,10-phenanthrolin-1(2H)-ylmethyl]-N-methyl-N-(1-methyl-3-pyrrolidinyl)imidazo[1,2-a]pyridin-5-amine], which IC50 is on record?
**A.** < 100 nM

**Q.** How did the IC50 turn out when `c1cnc2c(c1)CC[C@@H]1CCCN(Cc3cn4c(N5CCC(C6CCNCC6)CC5)cccc4n3)[C@H]21` [Example 76a, (4aR,10bS)-1-{[5-(4,4′-bipiperidin-1-yl)imidazo[1,2-a]pyridin-2-yl]methyl}-1,2,3,4,4a,5,6,10b-octahydro-1,10-phenanthroline] was run?
**A.** 100 to 500 nM

**Q.** `c1cnc2c(c1)CC[C@@H]1CCCN(Cc3cn4c(N5CCC(C6CCN(c7cccc8nc(CC9CCC[C@H]%10CCc%11cccnc%11[C@@H]9%10)cn78)CC6)CC5)cccc4n3)[C@H]21` (stereo partly drawn) [Example 76b, (4aR,10bS)-1-{[5-(1′-{2-[(6aS,10aR)-5,6,6a,7,8,9,10,10a-octahydrobenzo[h]quinolin-10-ylmethyl]imidazo[1,2-a]pyridin-5-yl}-4,4′-bipiperidin-1-yl)imidazo[1,2-a]pyridin-2-yl]methyl}-1,2,3,4,4a,5,6,10b-octahydro-1,10-phenanthroline] was tested. Which IC50 did it give?
**A.** 500 to 10000 nM

**Q.** How did the IC50 turn out when `c1cnc2c(c1)CC[C@@H]1CCCN(Cc3cn4c(N5CCN6CCC[C@H]6C5)cccc4n3)[C@H]21` [Example 106, (4aR,10bS)-1-({5-[(8aS)-hexahydropyrrolo[1,2-a]pyrazin-2(1H)-yl]imidazo[1,2-a]pyridin-2-yl}methyl)-1,2,3,4,4a,5,6,10b-octahydro-1,10-phenanthroline] was run?
**A.** < 100 nM

**Q.** How did the IC50 turn out when `N[C@@H]1CCN(c2cccc3nc(CN4CCC[C@H]5CCc6cccnc6[C@H]54)cn23)C1` [Example 110, (3R)-1-{2-[(4aR,10bS)-3,4,4a,5,6,10b-hexahydro-1,10-phenanthrolin-1(2H)-ylmethyl]imidazo[1,2-a]pyridin-5-yl}-3-pyrrolidinamine] was run?
**A.** < 100 nM

**Q.** With `CNCCCN(C)c1cccc2nc(CN3CCC[C@H]4CCc5cccnc5[C@H]43)cn12` [Example 81, N-{2-[(4aR,10bS)-3,4,4a,5,6,10b-hexahydro-1,10-phenanthrolin-1(2H)-ylmethyl]imidazo[1,2-a]pyridin-5-yl}-N,N′-dimethyl-1,3-propanediamine] as the molecule, how does the IC50 read?
**A.** < 100 nM

**Q.** Which IC50 does the source give for `NCCCCCn1c(CN2CCC[C@@H]3CCc4cccnc4[C@H]32)nc2ccccc21` (relative stereo) [Example 35, (trans)-5-[2-(3,4,4a,5,6,10b-hexahydro-1,10-phenanthrolin-1(2H)-ylmethyl)-1H-benzimidazol-1-yl]-1-pentanamine] here?
**A.** 100 to 500 nM

**Q.** How did the IC50 turn out when `CN1CCC[C@H](Cn2c(CN3CCC[C@H]4CCc5cccnc5[C@H]43)nc3ccccc32)C1` [Example 66, (4aR,10bS)-1-[(1-{[(3S)-1-methyl-3-piperidinyl]methyl}-1H-benzimidazol-2-yl)methyl]-1,2,3,4,4a,5,6,10b-octahydro-1,10-phenanthroline] was run?
**A.** < 100 nM

**Q.** `NC1CN(c2cccc3nc(CN4CCC[C@H]5CCc6cccnc6[C@H]54)cn23)C1` [Example 97, 1-{2-[(4aR,10bS)-3,4,4a,5,6,10b-hexahydro-1,10-phenanthrolin-1(2H)-ylmethyl]imidazo[1,2-a]pyridin-5-yl}-3-azetidinamine] was tested. Which IC50 did it give?
**A.** < 100 nM

**Q.** How did the IC50 turn out when `C[C@@H]1CN(c2cccc3nc(CN4CCC[C@H]5CCc6cccnc6[C@H]54)cn23)C[C@H](C)N1` [Example 77, (4aR,10bS)-1-({5-[(3R,5S)-3,5-dimethyl-1-piperazinyl]imidazo[1,2-a]pyridin-2-yl}methyl)-1,2,3,4,4a,5,6,10b-octahydro-1,10-phenanthroline] was run?
**A.** < 100 nM

**Q.** For `c1ccc(Cn2c(CN3CCC[C@H]4CCc5cccnc5[C@H]43)nc3ccccc32)nc1` (racemic) [Example 45, (cis) 1-{[1-(2-pyridinylmethyl)-1H-benzimidazol-2-yl]methyl}-1,2,3,4,4a,5,6,10b-octahydro-1,10-phenanthroline], which IC50 is on record?
**A.** 500 to 10000 nM

**Q.** `CN(C)CCCn1c(CN2CC[C@@H]3CCc4cccnc4[C@H]32)nc2ccccc21` (racemic) [Example 132, (trans) 3-[2-(2,3,3a,4,5,9b-hexahydro-1H-pyrrolo[3,2-h]quinolin-1-ylmethyl)-1H-benzimidazol-1-yl]-N,N-dimethyl-1-propanamine] was tested. Which IC50 did it give?
**A.** 100 to 500 nM

**Q.** `CCN(CC)Cc1c(CN2CCC[C@H]3CCc4cccnc4[C@H]32)nc2cccc(N3CCN(C)CC3)n12` [Example 55, N-ethyl-N-{[2-[(4aR,10bS)-3,4,4a,5,6,10b-hexahydro-1,10-phenanthrolin-1(2H)-ylmethyl]-5-(4-methyl-1-piperazinyl)imidazo[1,2-a]pyridin-3-yl]methyl}ethanamine] was tested. Which IC50 did it give?
**A.** < 100 nM

**Q.** Which IC50 does the source give for `c1cnc2c(c1)CC[C@@H]1CCCN(Cc3cn4c(N[C@H]5CCCNC5)cccc4n3)[C@H]21` [Example 112, 2-[(4aR,10bS)-3,4,4a,5,6,10b-hexahydro-1,10-phenanthrolin-1(2H)-ylmethyl]-N-[(3S)-3-piperidinyl]imidazo[1,2-a]pyridin-5-amine] here?
**A.** < 100 nM

**Q.** How did the IC50 turn out when `c1cnc2c(c1)CC[C@H]1CCN(Cc3nc4ccccc4n3CCCN3CCCCC3)[C@H]21` (racemic) [Example 133, (trans) 1-({1-[3-(1-piperidinyl)propyl]-1H-benzimidazol-2-yl}methyl)-2,3,3a,4,5,9b-hexahydro-1H-pyrrolo[3,2-h]quinoline] was run?
**A.** 100 to 500 nM

**Q.** `CC(C)N1CCN(c2cccc3nc(CN4CCC[C@H]5CCc6cccnc6[C@H]54)cn23)CC1` [Example 82, (4aR,10bS)-1-({5-[4-(1-methylethyl)-1-piperazinyl]imidazo[1,2-a]pyridin-2-yl}methyl)-1,2,3,4,4a,5,6,10b-octahydro-1,10-phenanthroline] was tested. Which IC50 did it give?
**A.** < 100 nM

**Q.** How did the IC50 turn out when `NCCN1CCN(c2cccc3nc(CN4CCC[C@H]5CCc6cccnc6[C@H]54)cn23)CC1` [Example 92, [2-(4-{2-[(4aR,10bS)-3,4,4a,5,6,10b-hexahydro-1,10-Phenanthrolin-1(2H)-ylmethyl]imidazo[1,2-a]pyridin-5-yl}-1-piperazinyl)ethyl]amine] was run?
**A.** < 100 nM

**Q.** With `CN1CCN(c2cccc3nc(CN4CCC[C@H]5CCc6cccnc6[C@H]54)[nH]c23)CC1` [Example 48, (4aR,10bS)-1-{[4-(4-methyl-1-piperazinyl)-1H-benzimidazol-2-yl]methyl}-1,2,3,4,4a,5,6,10b-octahydro-1,10-phenanthroline] as the molecule, how does the IC50 read?
**A.** < 100 nM
